What was measured:
renin = experiment: Renin inhibition in vitro
[1] = Determination of maximum tolerated dose (MTD) without hypercalcemia; design: species or system mice; settings: female, C57BL/6, mouse, in vivo, po; p.o. daily for four days; highest dose without hypercalcemia (serum calcium>10.7 mg/dl)
Procedure: The maximum tolerated dose of the vitamin D3 compounds of the invention were determined in eight week-old female C57BL/6 mice (3 mice/group) dosed orally (0.1 ml/mouse) with various concentrations of Vitamin D3 analogs daily for four days. Analogs were formulated in miglyol for a final concentration of 10, 30, 100 and 300 μg/kg when given at 0.1 ml/mouse p.o. daily. Blood for serum calcium assay was drawn by tail bleed on day five, the final day of the study. Serum calcium levels were determined using a colormetric assay (Sigma Diagnostics, procedure no. 597). The highest dose of analog tolerated without inducing hypercalcemia (serum calcium>10.7 mg/dl) was taken as the maximum tolerated does (MTD).

nephrectomized rats = experiment: Secondary hyperparathyroidism, 5/6 nephrectomized (uremic) rats; assay type: in vivo, Sprague Dawley rats; settings: for efficacy in PTH suppression and bone porosity / results compared to Zemplar in PTH suppression, CaxP, bone porosity and aortic calcification / safety profile compared to Zemplar: rat, in vivo; for bone protection / efficacy: rats with moderate renal failure
Procedure: Three month-old Sprague Dawley male rats (220-250 g BW) were purchased from CERJ, France, Rats were ⅚ nephrectomized (right kidney and ⅔ left kidney removed by surgery) or sham-operated (controls) by the supplier according to Prostrakan'procedures. The success of nephrectomy was evidenced at necropsy by visualizing the kidney tissue and measuring serum creatinin and urea. There were 10-12 rats in each group. […] Twenty days after operation, phosphate (Na2HPO4) was added to Eau de Volvic (6 g/l). Experimental procedures were approved by the Animal Ethics Committee of Prostrakan and by DDSV of Seine St Denis, France. The treatment started 82 days post-nephrectomy. Compounds were firstly dissolved in ethanol (1 mg/ml). The other dilutions were done in Miglyol 812N. […] Before the beginning of treatment, groups of control and nephrectomized rats were sacrificed to served as basal controls.
The whole left legs were collected for pQCT analysis. […] Five 0.5 mm-spaced slices were analyzed. The slide thickness was 20-30 μm. Bone volume (BV/TV) and trabecular number (TbN) and thickness (TbTh) were assessed. […] Three other lines separated by 1 mm were analyzed. […] The voxel size was 0.10 mm. The peel mode used was 20/50.
Ten μm-thick sections remained unstained for fluorescence microscopy observations.
To assess the calcification, aortas (6 cm-segment starting at arch), hearts and remaining kidney tissues were removed and fixed for histology analysis. Aortas segments were fixed in 3.7% formaldehyde and embedded in paraffin. Five μm cross sections were made and stained with a Von Kossa method for the calcification evaluation. The following grading of the calcification was used: moderate when less 50% of the aortic perimeter was calcified; severe when 100% of the aortic perimeter was calcified.
Data were expressed as mean±sem. […] The ANOVA test was used for all groups.

OVX rats = experiment: Osteoporosis, early curative treatment in 3 month old OVX rats; settings: for Tibia (μCT) increased over OVX controls / vertebrae (L5) increase over OVX control rats: 5/7 days for 3 weeks; for efficacy compared with calcitriol: 3 month old OVX rats
Procedure: Three-month old Sprague Dawley female rats were purchased from CERJ or Charles River, France. Rats underwent bilateral ovariectomy (OVX) or sham-operation (Sham) under anesthesia with intraperitoneal ketamine hydrochloride (50 mg/kg BW). The success of ovariectomy was evidenced at necropsy by weighing the uterus and visualizing the absence of ovarian tissue.
Throughout the whole experiment, rats were housed at 22±2° C. with a 12 h:12 h light-dark cycle. The animals were pair-fed a standard diet (Safe, 0.6% P, 0.8% Ca) and received Eau de Volvic ad libitum.
The treatment started 3 weeks post-ovariectomy. Compounds were firstly dissolved in ethanol (1 mg/ml). The other dilutions were done in Miglyol 812N. Compounds or vehicle (sham, OVX control rats) were given by daily oral gavage (5 ml/kg), 5/7 days for 3 weeks. […] Before the beginning of treatment, groups of sham and OVX rats were sacrificed to serve as basal controls. Ten and three days before sacrifice, rats were given subcutaneous injections of calcein (10 ml/kg, Sigma) to determine dynamic changes in bone tissue. The day before sacrifice, the rats were fasted and housed in metabolic cages to collect overnight urines.
At necropsy, right long bones were removed and fixed in 70% ethanol for further μCT (tibia and femur) and histomorphometry (tibia) analysis. The whole left legs were collected for pQCT analysis. The fourth and fifth lumbar vertebrae were dissected for DXA analysis. Excised tibias were scanned by a μCT machine (Scanco Medical) with software version 3.1 for a 2D-evaluation. The scans started at a distance of 1 mm of the reference line in the proximal tibia metaphysis. Five 0.5 mm-spaced slices were analyzed. The slice thickness was 20-30 μm. Bone volume (BV/TV) and trabeculae number (TbN) and thickness (TbTh) were assessed. Excised tibias were scanned by a pQCT machine (Stratec XCT Research SA+) with software version 5.4 to assess trabecular and cortical Bone Mineral Density (BMD) of proximal tibia metaphysis. For analysis of trabecular bone, the distance between the reference line and the first measurement line was 3 mm. Three other lines separated by 1 mm were analyzed. The cortical BMD was analyzed at 20 mm from the reference line. The voxel size was 0.10 mm. The peel mode used was 20/50. The BMD of excised fourth (L4) and fifth (L5) lumbar vertebrae were scanned by a DXA machine (Hologic QDR 4500) with software optimized for small animal studies. The regional high-resolution software selected a thin X-ray aperture. The large region was 68-71 and the narrow one was 35-21 to assess the body of the vertebrae of L4 and L5.
Left tibia from each rat was removed and dissected free of adjacent tissues. The bones were fixed in 70% ethanol, dehydrated in graded concentrations of ethanol, defatted in xylene, then embedded without decalcification in methyl methacrylate. Five μm-thick sections were made and stained with toluidine blue and cyanin solochrome and used for structural and cellular parameters evaluation. Ten μm-thick sections remained unstained for florescence microscopy observations. Structural and dynamic parameters were measured in the secondary spongiosa of the proximal tibial metaphysis situated about 1 mm distal from the growth plate-epiphyseal junction. Structural parameters, i.e. trabecular bone volume BV/TV (%), trabecular thickness (μm), connections and number, as well as cellular parameters (osteoblast, osteoid surfaces and osteoclast number), and dynamic parameters (mineralizing surface, mineral apposition rate, bone formation rate) were evaluated.
Osteocalcin (IRMA kit, Immutopics), DPyr (Metra DPD EIA kit), CTx (Ratlaps ELISA, Nordic, Bioscience Diagnostics) Ca, P, creatinin (Cobas Mira analyser) and rat PTH (Immutopics) were assessed in serum or urine material according to the manufacturer's instructions.

IFN-γ production = IFN-γ production by allogeneic T cell activation in the mixed leukocyte response (MLR); assay type: cell-based; settings: 120 h; allogeneic PBMC from 2 donors, 5 days, ELISA
Procedure: Immature dendritic cells (DC) were prepared as described in Romani, N. et al., J. Immunol. Meth. 196.137. IFN-γ production by allogeneic T cell activation in the mixed leukocyte response (MLR) was determined as described in Penna, G., et al., J. Immunol., 164: 2405-2411 (2000).
Briefly, peripheral blood mononuclear cells (PBMC) were separated from buffy coats by Ficoll gradient and the same number (3×105) of allogeneic PBMC from 2 different donors were co-cultured in 96-well flat-bottom plates. After 5 days, IFN-γ production in the MLR assay was measured by ELISA and the results expressed as amount (nM) of test compound required to induce 50% inhibition of IFN-γ production (IC50) (Table 1).

SMILES	inhibition of renin in vitro compared with calcitriol (renin)	results compared to Zemplar in the renin inhibition in vitro experiments (renin)	MTD at 4 days [1]	peritrabecular fibrosis (tibia) (nephrectomized rats; 0.1 μg/kg)	efficacy in PTH suppression and bone porosity (nephrectomized rats)	results compared to Zemplar in PTH suppression, CaxP, bone porosity and aortic calcification (nephrectomized rats)	safety profile compared to Zemplar (nephrectomized rats)	bone protection (nephrectomized rats)	efficacy (nephrectomized rats)	efficacy compared with calcitriol (OVX rats)	also measured
C=C1/C(=C\C=C2/CCC[C@@]3(C)C2CCC3[C@](C)(C/C=C\C(O)(C(F)(F)F)C(F)(F)F)CCCC(C)(C)O)CC(O)C[C@@H]1O (stereo partly drawn) [Compound 2, (20S)-1,25-Dihydroxy-20-((2Z)-5,5,5-trifluoro-4-hydroxy-4-trifluoromethyl-pent-2-enyl)cholecalciferol]	stronger inhibitition of renin in vitro over calcitriol	greater or equal positive results compared to Zemplar	0.3 µg/kg	one of ten rats	demonstrated efficacy	greater or equal positive results compared to Zemplar	equal or more beneficial results	provided bone protection on the tibia and vertebrae	good efficacy		osteoid thickening (tibia) (nephrectomized rats; 1 μg/kg): normal levels; rats with mild porous levels of femur cortical porosity (nephrectomized rats; 1 μg/kg): four of ten rats; femur cortical porosity (nephrectomized rats; 3 μg/kg): nine rats demonstrated normal levels; osteoid thickening (tibia) (nephrectomized rats; 3 μg/kg): normal levels; peritrabecular fibrosis (tibia) (nephrectomized rats; 3 μg/kg): normal levels
C=C1/C(=C\C=C2/CCC[C@@]3(C)C2CCC3[C@](C)(CC#CC(O)(C(F)(F)F)C(F)(F)F)CCCC(C)(C)O)CC(O)C[C@@H]1O (stereo partly drawn) [Compound 1, (20S)-1,25-Dihydroxy-20-(5,5,5-trifluoro-4-hydroxy-4-trifluoromethyl-pent-2-ynyl)-cholecalciferol]			0.3 µg/kg							greater efficacy than calcitriol	Tibia (μCT) increased over OVX controls (OVX rats; 0.3 μg/kg oral): 90%; vertebrae (L5) increase over OVX control rats (OVX rats; 0.3 μg/kg oral): 8%; efficacy vs. calcitrol on travecular bone volume (OVX rats; 0.3 μg/kg, FIG. 4): higher; Tibia (μCT) increased over OVX controls (OVX rats; 1 μg/kg oral): 114%; vertebrae (L5) increase over OVX control rats (OVX rats; 1 μg/kg oral): 12%
C=C1/C(=C\C=C2/CCC[C@@]3(C)C2CCC3[C@@](C)(CC#CC(O)(C(F)(F)F)C(F)(F)F)CCCC(C)(C)O)CC(O)C[C@@H]1O (stereo partly drawn) [Compound 4, (20R)-1,25-Dihydroxy-20-(5,5,5-trifluoro-4-hydroxy-4-trifluoromethyl-pent-2-ynyl)-cholecalciferol]	stronger inhibitition of renin in vitro over calcitriol	greater or equal positive results compared to Zemplar		normal levels	demonstrated efficacy	greater or equal positive results compared to Zemplar	equal or more beneficial results	provided bone protection on the tibia and vertebrae	good efficacy		osteoid thickening (tibia) (nephrectomized rats; 0.03 μg): normal levels; peritrabecular fibrosis (tibia) (nephrectomized rats; 0.03 μg/kg): one of nine rats; rats with mild porous levels of femur cortical porosity (nephrectomized rats; 0.03 μg/kg): four of nine rats; osteoid thickening (tibia) (nephrectomized rats; 0.1 μg/kg): one of nine rats; rats with mild porous levels of femur cortical porosity (nephrectomized rats; 0.1 μg/kg): one of nine rats
C=C1/C(=C\C=C2/CCC[C@@]3(C)C2CCC3[C@](C)(C/C=C/C(O)(C(F)(F)F)C(F)(F)F)CCCC(C)(C)O)CC(O)C[C@@H]1O (stereo partly drawn) [Compound 3, (20S)-1,25-Dihydroxy-20-[(2E)-5,5,5-trifluoro-4-hydroxy-4-trifluoromethyl-pent-2-enyl]-cholecalciferol]										greater efficacy than calcitriol	IC50 (IFN-γ production): 44 pM
C=C1/C(=C\C=C2/CCC[C@@]3(C)C2CCC3[C@](C)(CC#CC(O)(C(F)(F)F)C(F)(F)F)CCCC(C)(C)O)CC(O)C[C@@H]1F (stereo partly drawn) [Compound 6, (20S)-1α-Fluoro-25-hydroxy-20-(5,5,5-trifluoro-4-hydroxy-4-trifluoromethyl-pent-2-ynyl)-cholecalciferol]			100 µg/kg								
C=C1/C(=C\C=C2/CCC[C@@]3(C)C2CCC3[C@@](C)(C/C=C/C(O)(C(F)(F)F)C(F)(F)F)CCCC(C)(C)O)CC(O)C[C@@H]1O (stereo partly drawn) [Compound 5, (20R)-1,25-Dihydroxy-20-[(2E)-5,5,5-trifluoro-4-hydroxy-4-trifluoromethyl-pent-2-enyl]-cholecalciferol]			0.1 µg/kg								

Source: patent publication US20090298799A1, “Methods of Treating Osteoporosis and Secondary Hyperparathyroidism Using 20-Methyl, Gemini Vitamin D3 Compounds” (BioXell S.p.A., priority 2005, published 2009)
